Source: ChEMBL document CHEMBL1145572, “Analogues of N-hydroxy-N'-phenylthiourea and N-hydroxy-N'-phenylurea as inhibitors of tyrosinase and melanin formation” (Bioorg Med Chem Lett, 2008)
Active and inactive are the calls of the source. The calls are words filed in the database; no cut-off is given here.

How the values were obtained:
Tyrosinase = target: T1, Tyrosinase (Agaricus bisporus, UniProt O42713)
T1 sequence (O42713 whole entry): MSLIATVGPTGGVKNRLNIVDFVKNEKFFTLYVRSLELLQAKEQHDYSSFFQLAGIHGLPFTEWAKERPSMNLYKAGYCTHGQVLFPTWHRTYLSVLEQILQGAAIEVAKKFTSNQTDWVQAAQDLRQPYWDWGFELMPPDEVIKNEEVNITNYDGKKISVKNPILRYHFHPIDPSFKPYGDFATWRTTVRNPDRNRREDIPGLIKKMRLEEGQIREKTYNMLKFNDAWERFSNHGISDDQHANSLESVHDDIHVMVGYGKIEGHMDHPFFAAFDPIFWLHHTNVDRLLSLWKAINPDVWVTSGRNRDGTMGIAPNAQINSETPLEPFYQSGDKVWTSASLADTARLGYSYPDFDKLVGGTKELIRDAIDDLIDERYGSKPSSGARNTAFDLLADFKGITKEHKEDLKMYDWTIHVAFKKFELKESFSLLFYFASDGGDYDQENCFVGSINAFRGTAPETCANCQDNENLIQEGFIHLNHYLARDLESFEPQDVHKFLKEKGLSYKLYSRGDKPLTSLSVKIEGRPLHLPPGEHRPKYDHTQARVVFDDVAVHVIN
Description: Inhibition of mushroom tyrosinase

B16 [1] = test: Cytotoxicity against mouse B16 cells at 100 uM; format: functional, cell-based
B16 [2] = test: Inhibition of melanin production in mouse B16 cells at 50 uM; format: functional
B16 [3] = test: Inhibition of melanin production in mouse B16 cells at 100 uM; format: functional

| SMILES | IC50 (Tyrosinase) [µM] | Activity (B16 [1]) | inhibition at 50 µM (B16 [2]) [%] | Activity (B16 [3]) | inhibition at 100 µM (B16 [3]) [%] |
| --- | --- | --- | --- | --- | --- |
| CONC(=S)Nc1ccc([N+](=O)[O-])cc1 | > 1000 | inactive | 75.5 | – | – |
| CC(C)(C)[Si](C)(C)ONC(=O)Nc1ccccc1 | 70 | inactive | – | inactive | – |
| O=C(NO)Nc1ccccc1 | 0.29 | inactive | – | – | 78 |
| CCCCOc1ccc(NC(=O)NO)cc1 | > 1000 | inactive | – | inactive | – |
| COc1ccc(NC(=O)NO)cc1 | 32 | inactive | – | inactive | – |
| ONC(=S)Nc1ccccc1 | > 1000 | inactive | – | inactive | – |
| CONC(=O)N(C)c1ccccc1 | > 1000 | inactive | – | – | – |
| CC(=O)N(O)C(=O)Nc1ccccc1 | 170 | inactive | – | – | – |
| COc1ccc(NC(=O)NO)c(OC)c1 | > 1000 | inactive | – | inactive | – |
| CN(O)C(=O)Nc1ccc([N+](=O)[O-])cc1 | 770 | inactive | – | – | 82 |
| OC[C@H]1O[C@@H](Oc2ccc(O)cc2)[C@H](O)[C@@H](O)[C@@H]1O [ARBUTIN] | – | – | – | – | 43.8 |
| CN(O)C(=O)N(C)c1ccccc1 | > 1000 | inactive | – | – | – |
| CN(O)C(=O)Nc1ccccc1 | > 1000 | inactive | – | inactive | – |
| O=C(NO)Nc1ccc([N+](=O)[O-])cc1 | 2.6 | inactive | – | – | 86 |
| CONC(=O)Nc1ccccc1 | > 1000 | inactive | – | inactive | – |
| NC(=O)Nc1ccccc1 | > 1000 | – | – | inactive | – |
| O=C(NO)Nc1ccc(OCc2ccccc2)cc1 | 6.3 | inactive | – | inactive | – |
| O=C(NO)Nc1ccc(C(F)(F)F)cc1 | 4.3 | inactive | – | – | 79.3 |
| O=C(NO)Nc1ccc(NC(=O)NO)cc1 | 27 | inactive | – | – | 66 |
| Oc1ccc(O)cc1 [HYDROQUINONE] | 37 | – | – | – | – |
| CN(C(=O)NO)c1ccccc1 | 16 | inactive | – | – | – |
| O=C(NO)Nc1ccc(Br)cc1 | 2.7 | inactive | – | – | 75.5 |
| O=C(NO)Nc1ccc(O)cc1 | 41 | inactive | – | – | 19 |
| CN(O)C(=O)Nc1ccc(Br)cc1 | > 1000 | inactive | – | inactive | – |
| CONC(=S)Nc1ccc2ccccc2c1 | 26 | inactive | – | – | 85 |
